Laboratory results from patent US10765763B2, “Radioligands for myelin” (CASE WESTERN RESERVE UNIVERSITY, priority 2016, dated 2020).
“Also recorded” adds a separate entry of the source.

Experiments:
myelin [1] = experiment: In situ histological staining of SCI (T13) spinal cord after microPET/CT; type: in vivo, rat; conditions: SCI rats, 60 min after tail vein injection
Experimental: After microPET imaging studies, the rats were administered compound 21 (3-5 mg) via tail vein injection, and 60 min later the rats were perfused transcardially with saline followed by 4% PFA in PBS. Spinal cords were then removed, postfixed by immersion in 4% PFA overnight, dehydrated in 30% sucrose solution, cryostat sectioned at 100 μm, mounted consecutively on superfrost slides, and images were sequentially acquired directly using a Leica fluorescent microscope to give a series of 2D microscopic images along the length of the spinal cord. Slices were aligned sequentially using a semiautomated image registration algorithm. Starting from the first slice image, the current slice was used as the reference image for alignment and the next slice was the floating image. The floating image was aligned via control point pairs between corresponding anatomic features in the two images. A 2D rigid-body transformation (translation, rotation) was used to transform the floating image to align with the reference and a minimum of three control point pairs were used for the transformation. […] All slices in the sequence were aligned by this technique, giving a 3D reconstructed fluorescence image volume. Image volumes from fluorescence, PET, and CT were visualized in Amira using volume rendering and aligned based on the shape of the spine and fiducials from the vertebrae. […]

myelin [2] = experiment: In situ staining of compound 21 in wild-type mice; type: in vivo, mouse; conditions: WT mice, 1.0 mg (50 mg/kg) tail vein, 1 h
Experimental: Wild-type mice were administered the newly synthesized compounds (40 mg/kg) via tail vein injection, and 30-60 min later the mice were perfused transcardially with saline followed by 4% PFA in PBS. Brains and spinal cords were then removed, postfixed by immersion in 4% PFA overnight, dehydrated in 30% sucrose solution, cryostat sectioned at 100 μm, mounted on superfrost slides, and images were acquired directly using a Leica fluorescent microscope.
Following the in vitro studies, we then investigated the ability of compound 21 to readily enter the brain and bind to myelin in situ. A dose of 1.0 mg of compound 21 (50 mg/kg) was administered via the tail vein to wild-type (WT) mice. One hour after injection, the mice were perfused with saline followed by 4% paraformaldehyde (PFA) and the brain and spinal cord were removed and sectioned. The distribution of compound 21 was then directly examined under a fluorescent microscope.

myelin [3] = experiment: In vitro detection of focal demyelination in LPC rat model; type: binding; conditions: in vitro tissue staining
Experimental: Sprague-Dawley female rats (220-250 g, 8 weeks old) were anesthetized and positioned in a stereotaxic frame (Stoelting). A small incision was made in the scalp, and the corpus callosum was targeted using the following stereotaxic coordinates, relative to bregma: anterior-posterior, 0.0 mm; medial-lateral, 2.0 mm; and dorsal-ventral, 3.4 mm A small hole was drilled in the skull, and a 26S-gauge needle attached to a 10 μL Hamilton Syringe was lowered into the corpus callosum according to the dorsal-ventral coordinate. A microinjector pump (Stoelting) controlled the infusion of 6 μL of lysolecithin (LPC, 0.1% in saline) at a rate of 0.25 μL/min, after which the needle was left in place for 2 min in order to prevent liquid reflux out of the brain parenchyma. The incision was then closed using 5-0 Ethicon sutures, and the animals were allowed to recover on a heating pad. After 5-7 days, the animals were ready for study.
Five days after surgery, the rats were anesthetized and perfused with saline followed by 4% PFA. […] Sections were then examined under a microscope (Leica DM4000B, Leica Microsystem Inc., Buffalo Grove, Ill., USA) equipped for fluorescence (DFC7000T), and images of the stained mouse whole brain sections were acquired with the same exposure time. […]

[4] = Quantitative microPET/CT imaging in WT rats, Example 2; type: in vivo, rat
Experimental: (§1) For better anatomic localization, CT co-registration was applied.
Following radiosynthesis, the pharmacokinetic profile of [^18F]21 was fully characterized by quantitative microPET/CT imaging in WT rats (n=3). […] The brain radioactivity peaked at 3 min postinjection followed by rapid clearance before reaching a plateau at 40-60 min postinjection.

myelin [5] = experiment: Quantitative microPET/CT imaging of spinal cord in rat SCI model; type: in vivo; conditions: for uptake in T13: normalized to average spine uptake
Experimental: Sprague-Dawley female rats (220-250 g, 8 weeks old) were anesthetized and a restricted laminectomy was conducted to expose the dorsal surface of T13. The vertebral column between T12 and L1 was then stabilized with clamps and forceps fixed to the base of an Infinite Horizon impact device. The midpoint of T13 was impacted with a force of 250 kDyn using a 2.5 mm stainless steel impactor tip, which was used to induce a moderately severe contusive injury to the spinal cord. The musculature was then sutured over the laminectomy site and the skin closed with wound clips followed by subsequent treatment with Marcaine at the incision site. The force/displacement graph was used to monitor impact consistency. After surgery, the animals were carefully monitored daily for pain and body weight with manual bladder expression 2-3 times daily to stimulate reflex voiding until the animals could urinate independently.
as §1
So far, imaging of the spinal cord remains a great challenge. […] Next, we asked whether [18F]21 PET is capable of in vivo imaging of myelin deficiency or myelin damage in living animal models. We conducted [^18F]21-PET imaging in a rat model of thoracic contusive SCI. In this model, the contusion was made at T13 to introduce demyelination. In vivo [^18F]21 PET imaging was performed before (as a baseline scan) and 1 day after contusion. The uptake of [^18F]21 in every spine segment was then normalized to the average spine uptake. […] After microPET/CT imaging, we conducted in situ histological staining of the spinal cord 60 min after injection of nonlabeled compound 21 through the tail vein.

myelin [6] = experiment: Quantitative microPET/CT imaging in Shiverer and WT mice; type: in vivo, mouse; conditions: microPET
Experimental: as §1
To further evaluate the in vivo binding specificity of [^18F]21, we investigated the pharmacokinetic profiles of [^18F]21 in a Shiverer mouse model that is deficient in myelin in the brain. Thus, the pharmacokinetic profiles of [^18F]21 were quantitatively compared between Shiverer mice (C3Fe.SWV-Mbpshi/J, n=2) and age-matched WT mice (CB57J, n=2).
Dynamic emission scans were acquired for 60 min in 3D list mode immediately after [^18F]21 (0.3 mCi each mouse, 11.1 MBq) was administered. The brain uptake of [^18F]21 was lower in the Shiverer brain than in the WT littermates (1.25 vs 1.64). After the brain concentration of [^18F]21 reached a plateau, the SUVs from 40 to 60 min were summarized and compared.

myelin [7] = experiment: In situ autoradiography of [18F]21 in mouse brain; type: in vivo; conditions: coronal, after tail vein injection
Experimental: Wild-type mice were euthanized at 30 min post iv injection of [^18F]21 (111 MBq, 3.0 mCi). The brains were rapidly removed, placed in OCT embedding medium, and frozen at −20° C. After reaching equilibrium at this temperature, the brains were coronally sectioned at 60 μm on a cryostat and mounted on superfrost slides. After drying by air at room temperature, the slides were put in a cassette and exposed for 20 min to film to obtain images.
To validate the PET results and confirm that the PET signals were indeed from specific binding to myelin, we conducted ex vivo autoradiography in the mouse brain following administration of [^18F]21 through tail vein injections. After 1 h, the mouse brain was dissected for coronal tissue sectioning. […] Thus, combination of in situ autoradiography and PET imaging confirmed that [^18F]21 binds specifically to myelin in vivo.

| SMILES | in situ histological staining of SCI (T13) tissue section (myelin [1]) | brain/spinal cord entry and in situ myelin staining (myelin [2]) | detection of demyelinated lesion by fluorescent staining (myelin [3]) | brain uptake ([4]; WT rats (n=3), microPET/CT) | time constant of clearance ([4]; WT rats, calculated from fitted time-radioactivity curve) [min] | time of peak brain radioactivity ([4]; WT rats, postinjection) [min] | time of plateau of brain radioactivity ([4]; WT rats, postinjection) [min] | uptake in L1 (myelin [5]; 1 day post-T13 contusion) | uptake in T12 (myelin [5]; 1 day post-T13 contusion) | uptake in T13 (myelin [5]; SCI group, 1 day post-T13 contusion) | uptake in T13 (myelin [5]; baseline scan before contusion) | uptake in L1 (myelin [5]; before contusion) | uptake in T12 (myelin [5]; before contusion) | brain uptake (myelin [6]; Shiverer mouse brain) | brain uptake (myelin [6]; WT littermates) | autoradiographic labeling (myelin [7]) |
| --- | --- | --- | --- | --- | --- | --- | --- | --- | --- | --- | --- | --- | --- | --- | --- | --- |
| CNc1ccc(/C=C/c2ccc(NCc3cn(CCF)nn3)cc2)cc1 [Compound 21, (E)-N-((1-(2-Fluoroethyl)-1H-1,2,3-triazol-4-yl)methyl)-4-(4-(methylamino)styryl)aniline] | showed that a demyelinated lesion was present at the dorsal column | readily entered the brain and spinal cord and localized in all the myelinated regions in proportion to the myelin content; also recorded: crosses the BBB and stains myelinated areas of the mouse brain | capable of detecting the demyelinated focal lesion by fluorescent staining; also recorded: can be used to detect demyelinated lesion | – | – | – | – | – | – | – | – | – | – | – | – | – |
| CNc1ccc(/C=C/c2ccc(NCc3cn(CC[18F])nn3)cc2)cc1 [[^18F]21] | – | – | – | high uptake in the brain | 19.45 | 3 | 40 to 60 | 1.08 | 0.99 | 0.81 | 1.02 | 1.05 | 0.99 | 1.25 | 1.64 | distinctly labeled the corpus callosum |
